According to PubChem BioAssay (NCI):
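The compound was tested at five concentrations on cells cultured in 96-well plates, with a 48-hour exposure period. GI50 is the concentration that inhibits growth by half. TGI is the concentration that stops growth completely.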

What was measured:
Assay in all cases: NCI tumour cell line growth inhibition, 48 h
786-0 renal = tested on: 786-0 renal
A498 renal = tested on: A498 renal
SW-620 colon = tested on: SW-620 colon
MCF7 breast = tested on: MCF7 breast
UACC-62 melanoma = tested on: UACC-62 melanoma
SK-OV-3 ovarian = tested on: SK-OV-3 ovarian
IGROV1 ovarian = tested on: IGROV1 ovarian
COLO 205 colon = tested on: COLO 205 colon
SK-MEL-28 melanoma = tested on: SK-MEL-28 melanoma
UO-31 renal = tested on: UO-31 renal
SR leukemia = tested on: SR leukemia
SNB-75 CNS = tested on: SNB-75 CNS
HCT-15 colon = tested on: HCT-15 colon
RPMI-8226 leukemia = tested on: RPMI-8226 leukemia
OVCAR-4 ovarian = tested on: OVCAR-4 ovarian
TK-10 renal = tested on: TK-10 renal
SF-295 CNS = tested on: SF-295 CNS
SK-MEL-5 melanoma = tested on: SK-MEL-5 melanoma
U251 CNS = tested on: U251 CNS
HS 578T breast = tested on: HS 578T breast
CAKI-1 renal = tested on: CAKI-1 renal
LOX IMVI melanoma = tested on: LOX IMVI melanoma
T-47D breast = tested on: T-47D breast
HCC-2998 colon = tested on: HCC-2998 colon
NCI/ADR-RES ovarian = tested on: NCI/ADR-RES ovarian
NCI-H226 lung = tested on: NCI-H226 lung
OVCAR-5 ovarian = tested on: OVCAR-5 ovarian
MALME-3M melanoma = tested on: MALME-3M melanoma
NCI-H522 lung = tested on: NCI-H522 lung
NCI-H460 lung = tested on: NCI-H460 lung
HOP-62 NSCLC = tested on: HOP-62 NSCLC
A549 NSCLC = tested on: A549 NSCLC
SK-MEL-2 melanoma = tested on: SK-MEL-2 melanoma
SNB-19 CNS = tested on: SNB-19 CNS
MDA-MB-435 = tested on: MDA-MB-435
HL-60(TB) leukemia = tested on: HL-60(TB) leukemia
EKVX NSCLC = tested on: EKVX NSCLC
UACC-257 melanoma = tested on: UACC-257 melanoma
MDA-MB-231 breast = tested on: MDA-MB-231 breast
SF-539 CNS = tested on: SF-539 CNS
HCT-116 colon = tested on: HCT-116 colon
MOLT-4 leukemia = tested on: MOLT-4 leukemia
HT29 colon = tested on: HT29 colon
DU-145 prostate = tested on: DU-145 prostate
M14 melanoma = tested on: M14 melanoma
K-562 leukemia = tested on: K-562 leukemia
SN12C renal = tested on: SN12C renal
BT-549 breast = tested on: BT-549 breast
RXF 393 renal = tested on: RXF 393 renal
CCRF-CEM leukemia = tested on: CCRF-CEM leukemia
OVCAR-3 ovarian = tested on: OVCAR-3 ovarian
SF-268 CNS = tested on: SF-268 CNS
OVCAR-8 ovarian = tested on: OVCAR-8 ovarian
KM12 colon = tested on: KM12 colon
ACHN renal = tested on: ACHN renal
PC-3 prostate = tested on: PC-3 prostate
HOP-92 NSCLC = tested on: HOP-92 NSCLC

`Cc1cc2c(-c3ccc(NC(=O)[C@H](N)CC(C)(C)C)cc3C)ccnc2[nH]1` was tested, and the GI50 (786-0 renal) was 1.81 µM, the TGI (786-0 renal) was 3.4 µM and the GI50 (A498 renal) was 2.2 µM. The TGI (A498 renal) was 12.8 µM, the GI50 (SW-620 colon) was 5.63 µM and the TGI (SW-620 colon) was 19.7 µM. The GI50 (MCF7 breast) was 5.54 µM, the TGI (MCF7 breast) was 30.5 µM and the GI50 (UACC-62 melanoma) was 8.6 µM. The TGI (UACC-62 melanoma) was 21 µM, the GI50 (SK-OV-3 ovarian) was 12.4 µM and the TGI (SK-OV-3 ovarian) was 25.2 µM. For the same compound, the GI50 (IGROV1 ovarian) was 12.2 µM, the TGI (IGROV1 ovarian) was 26.1 µM and the GI50 (COLO 205 colon) was 1.82 µM. It also gave a TGI (COLO 205 colon) of 3.54 µM, a GI50 (SK-MEL-28 melanoma) of 8.48 µM and a TGI (SK-MEL-28 melanoma) of 20.8 µM. It also gave a GI50 (UO-31 renal) of 4.62 µM, a TGI (UO-31 renal) of 18.1 µM and a GI50 (SR leukemia) of 2.08 µM. The TGI (SR leukemia) was 6.37 µM, the GI50 (SNB-75 CNS) was 4.72 µM and the TGI (SNB-75 CNS) was 18.1 µM. For the same compound, the GI50 (HCT-15 colon) was 4.52 µM, the TGI (HCT-15 colon) was 21.8 µM and the GI50 (RPMI-8226 leukemia) was 2.77 µM. The TGI (RPMI-8226 leukemia) was 7.82 µM, the GI50 (OVCAR-4 ovarian) was 6.95 µM and the TGI (OVCAR-4 ovarian) was 20.8 µM. The GI50 (TK-10 renal) was 12.6 µM, the TGI (TK-10 renal) was 25.3 µM and the GI50 (SF-295 CNS) was 8.33 µM. For the same compound, the TGI (SF-295 CNS) was 25.7 µM, the GI50 (SK-MEL-5 melanoma) was 2.46 µM and the TGI (SK-MEL-5 melanoma) was 6.53 µM. The GI50 (U251 CNS) was 5.99 µM, the TGI (U251 CNS) was 19.5 µM and the GI50 (HS 578T breast) was 1.42 µM. It also gave a TGI (HS 578T breast) of 12.3 µM, a GI50 (CAKI-1 renal) of 4.5 µM and a TGI (CAKI-1 renal) of 16.3 µM. The GI50 (LOX IMVI melanoma) was 5.9 µM, the TGI (LOX IMVI melanoma) was 25.9 µM and the GI50 (T-47D breast) was 6.71 µM. The TGI (T-47D breast) was 24.8 µM, the GI50 (HCC-2998 colon) was 5.81 µM and the TGI (HCC-2998 colon) was 20.9 µM. It also gave a GI50 (NCI/ADR-RES ovarian) of 13.4 µM, a TGI (NCI/ADR-RES ovarian) of 35.8 µM and a GI50 (NCI-H226 lung) of 10.7 µM. The TGI (NCI-H226 lung) was 27.2 µM, the GI50 (OVCAR-5 ovarian) was 10.4 µM and the TGI (OVCAR-5 ovarian) was 22.3 µM. The GI50 (MALME-3M melanoma) was 10.2 µM, the TGI (MALME-3M melanoma) was 22.8 µM and the GI50 (NCI-H522 lung) was 13 µM. For the same compound, the TGI (NCI-H522 lung) was 26.3 µM, the GI50 (NCI-H460 lung) was 5.7 µM and the TGI (NCI-H460 lung) was 19 µM. It also gave a GI50 (HOP-62 NSCLC) of 11.4 µM, a TGI (HOP-62 NSCLC) of 24.6 µM and a GI50 (A549 NSCLC) of 10.3 µM. For the same compound, the TGI (A549 NSCLC) was 26 µM, the GI50 (SK-MEL-2 melanoma) was 14 µM and the TGI (SK-MEL-2 melanoma) was 27.2 µM. The GI50 (SNB-19 CNS) was 11.3 µM, the TGI (SNB-19 CNS) was 23.5 µM and the GI50 (MDA-MB-435) was 7 µM. It also gave a TGI (MDA-MB-435) of 19.9 µM, a GI50 (HL-60(TB) leukemia) of 2.89 µM and a TGI (HL-60(TB) leukemia) of 14 µM. The GI50 (EKVX NSCLC) was 11.2 µM, the TGI (EKVX NSCLC) was 28.3 µM and the GI50 (UACC-257 melanoma) was 10.5 µM. For the same compound, the TGI (UACC-257 melanoma) was 23 µM, the GI50 (MDA-MB-231 breast) was 7.43 µM and the TGI (MDA-MB-231 breast) was 20.7 µM. For the same compound, the GI50 (SF-539 CNS) was 7.97 µM, the TGI (SF-539 CNS) was 21 µM and the GI50 (HCT-116 colon) was 4.85 µM. The TGI (HCT-116 colon) was 16.5 µM, the GI50 (MOLT-4 leukemia) was 4.69 µM and the TGI (MOLT-4 leukemia) was 24 µM. It also gave a GI50 (HT29 colon) of 2.72 µM, a TGI (HT29 colon) of 8.84 µM and a GI50 (DU-145 prostate) of 12.4 µM. It also gave a TGI (DU-145 prostate) of 25.5 µM, a GI50 (M14 melanoma) of 11 µM and a TGI (M14 melanoma) of 23.5 µM. For the same compound, the GI50 (K-562 leukemia) was 2.82 µM, the TGI (K-562 leukemia) was 41.2 µM and the GI50 (SN12C renal) was 11.1 µM. For the same compound, the TGI (SN12C renal) was 23.6 µM, the GI50 (BT-549 breast) was 6.31 µM and the TGI (BT-549 breast) was 19.5 µM. It also gave a GI50 (RXF 393 renal) of 3.68 µM, a TGI (RXF 393 renal) of 16 µM and a GI50 (CCRF-CEM leukemia) of 5.41 µM. For the same compound, the TGI (CCRF-CEM leukemia) was 28.2 µM, the GI50 (OVCAR-3 ovarian) was 11.6 µM and the TGI (OVCAR-3 ovarian) was 24.8 µM. For the same compound, the GI50 (SF-268 CNS) was 11.1 µM, the TGI (SF-268 CNS) was 26.6 µM and the GI50 (OVCAR-8 ovarian) was 13.6 µM. For the same compound, the TGI (OVCAR-8 ovarian) was 28 µM, the GI50 (KM12 colon) was 6.1 µM and the TGI (KM12 colon) was 21.2 µM. The GI50 (ACHN renal) was 10.5 µM, the TGI (ACHN renal) was 22.3 µM and the GI50 (PC-3 prostate) was 7.91 µM. For the same compound, the TGI (PC-3 prostate) was 22.1 µM, the GI50 (HOP-92 NSCLC) was 2.67 µM and the TGI (HOP-92 NSCLC) was 10.3 µM.
